What all share (format): biochemical
Common to all, as to details: ADP-Glo SIK kinase assay
(In ADP-Glo the light output rises with the ADP produced.)

For one assay, the target named is T1, SIK1 (Homo sapiens, UniProt P57059).
T1 construct: purchased Carna Biosciences 02-131
Description: ADP-Glo kinase assay, SIK1. The method, boiled down: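 Wells with 1% DMSO or 10 μM staurosporine (final) define the control window. The kinase reaction with substrate and ATP runs 120 min at RT, followed by ADP-Glo detection: ATP depletion (40 min) and ADP-derived luminescence (30 min).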

A further assay deals with T2, SIK2 (Homo sapiens, UniProt Q9H0K1).
T2 construct: purchased ThermoFisher Scientific PV4792
T2 sequence (Q9H0K1 whole entry): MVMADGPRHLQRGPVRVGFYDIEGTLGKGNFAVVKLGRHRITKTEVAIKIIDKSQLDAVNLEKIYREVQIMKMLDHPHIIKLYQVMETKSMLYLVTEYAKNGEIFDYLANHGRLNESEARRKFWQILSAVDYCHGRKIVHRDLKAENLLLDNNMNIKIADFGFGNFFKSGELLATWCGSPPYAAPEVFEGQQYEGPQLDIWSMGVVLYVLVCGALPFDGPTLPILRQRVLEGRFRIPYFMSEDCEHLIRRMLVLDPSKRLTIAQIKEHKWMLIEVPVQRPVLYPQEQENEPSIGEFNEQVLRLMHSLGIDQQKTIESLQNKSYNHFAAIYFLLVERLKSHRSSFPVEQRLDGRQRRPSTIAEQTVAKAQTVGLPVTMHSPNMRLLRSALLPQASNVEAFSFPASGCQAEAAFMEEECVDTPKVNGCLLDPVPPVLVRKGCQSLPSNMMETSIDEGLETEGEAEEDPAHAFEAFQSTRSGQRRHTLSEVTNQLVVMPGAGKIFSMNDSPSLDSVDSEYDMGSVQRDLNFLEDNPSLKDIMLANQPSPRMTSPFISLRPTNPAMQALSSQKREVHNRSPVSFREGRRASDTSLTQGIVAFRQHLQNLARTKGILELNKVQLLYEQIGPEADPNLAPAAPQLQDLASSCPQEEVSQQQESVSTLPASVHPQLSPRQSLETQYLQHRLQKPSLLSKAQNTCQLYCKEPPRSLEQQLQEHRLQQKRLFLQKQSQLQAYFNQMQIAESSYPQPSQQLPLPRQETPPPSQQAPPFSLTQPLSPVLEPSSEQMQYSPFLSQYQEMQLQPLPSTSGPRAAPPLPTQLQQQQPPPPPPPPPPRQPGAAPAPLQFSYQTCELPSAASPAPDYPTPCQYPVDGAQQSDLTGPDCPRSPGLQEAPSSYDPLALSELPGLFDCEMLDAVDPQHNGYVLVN
Description: ADP-Glo kinase assay, SIK2. The procedure, abridged: (§1)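 ADP-Glo luminescent assay of ADP formed by SIK2 or SIK3 with substrate after ATP addition, 120 min at RT. Remaining ATP depleted 40 min, then ADP converted to ATP and read by luciferase luminescence after 30 min. Controls: 1% DMSO and 10 μM staurosporine (final).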

The next assay deals with T3, SIK3 (Homo sapiens, UniProt Q9Y2K2).
T3 construct: purchased SignalChem S12-11G-100
T3 sequence (Q9Y2K2 whole entry): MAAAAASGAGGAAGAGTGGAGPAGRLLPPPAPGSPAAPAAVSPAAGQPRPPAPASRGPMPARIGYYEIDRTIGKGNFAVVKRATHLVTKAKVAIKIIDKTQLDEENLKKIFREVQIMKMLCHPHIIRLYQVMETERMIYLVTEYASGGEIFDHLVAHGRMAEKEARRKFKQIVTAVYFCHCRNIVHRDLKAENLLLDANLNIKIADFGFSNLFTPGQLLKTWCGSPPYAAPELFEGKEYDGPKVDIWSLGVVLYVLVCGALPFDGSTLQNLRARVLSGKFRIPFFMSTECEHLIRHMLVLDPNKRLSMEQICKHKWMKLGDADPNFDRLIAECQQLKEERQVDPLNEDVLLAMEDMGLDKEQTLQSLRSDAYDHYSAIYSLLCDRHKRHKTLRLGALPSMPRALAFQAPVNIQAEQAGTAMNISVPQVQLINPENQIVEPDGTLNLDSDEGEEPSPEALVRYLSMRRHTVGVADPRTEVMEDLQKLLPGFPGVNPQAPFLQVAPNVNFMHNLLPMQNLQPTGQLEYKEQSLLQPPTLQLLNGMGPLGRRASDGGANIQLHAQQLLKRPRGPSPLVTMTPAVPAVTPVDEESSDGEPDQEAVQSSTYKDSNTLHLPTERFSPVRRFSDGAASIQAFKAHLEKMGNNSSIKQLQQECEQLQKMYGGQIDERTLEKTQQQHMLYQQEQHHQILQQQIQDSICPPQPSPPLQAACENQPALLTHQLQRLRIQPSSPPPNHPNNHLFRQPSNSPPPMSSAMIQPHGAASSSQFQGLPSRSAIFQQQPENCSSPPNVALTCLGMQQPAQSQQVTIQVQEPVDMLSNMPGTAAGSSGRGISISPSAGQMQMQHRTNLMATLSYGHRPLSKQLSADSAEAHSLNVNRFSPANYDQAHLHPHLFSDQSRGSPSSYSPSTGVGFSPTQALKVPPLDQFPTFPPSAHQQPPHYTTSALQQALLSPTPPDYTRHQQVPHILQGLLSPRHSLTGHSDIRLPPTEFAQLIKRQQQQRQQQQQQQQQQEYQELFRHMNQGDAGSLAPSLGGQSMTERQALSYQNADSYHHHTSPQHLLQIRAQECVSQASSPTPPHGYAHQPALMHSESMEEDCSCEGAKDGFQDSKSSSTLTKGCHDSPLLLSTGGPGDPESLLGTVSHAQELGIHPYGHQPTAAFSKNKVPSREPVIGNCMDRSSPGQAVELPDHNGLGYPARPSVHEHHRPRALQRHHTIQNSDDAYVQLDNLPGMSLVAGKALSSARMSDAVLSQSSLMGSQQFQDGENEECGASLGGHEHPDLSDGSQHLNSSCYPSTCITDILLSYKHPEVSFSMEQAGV
Description: ADP-Glo kinase assay, SIK3. The method, boiled down: as §1

The IC50 is the concentration at which inhibition is half-maximal. A high value points to a need for much substance.

T1 sequence (P57059 whole entry): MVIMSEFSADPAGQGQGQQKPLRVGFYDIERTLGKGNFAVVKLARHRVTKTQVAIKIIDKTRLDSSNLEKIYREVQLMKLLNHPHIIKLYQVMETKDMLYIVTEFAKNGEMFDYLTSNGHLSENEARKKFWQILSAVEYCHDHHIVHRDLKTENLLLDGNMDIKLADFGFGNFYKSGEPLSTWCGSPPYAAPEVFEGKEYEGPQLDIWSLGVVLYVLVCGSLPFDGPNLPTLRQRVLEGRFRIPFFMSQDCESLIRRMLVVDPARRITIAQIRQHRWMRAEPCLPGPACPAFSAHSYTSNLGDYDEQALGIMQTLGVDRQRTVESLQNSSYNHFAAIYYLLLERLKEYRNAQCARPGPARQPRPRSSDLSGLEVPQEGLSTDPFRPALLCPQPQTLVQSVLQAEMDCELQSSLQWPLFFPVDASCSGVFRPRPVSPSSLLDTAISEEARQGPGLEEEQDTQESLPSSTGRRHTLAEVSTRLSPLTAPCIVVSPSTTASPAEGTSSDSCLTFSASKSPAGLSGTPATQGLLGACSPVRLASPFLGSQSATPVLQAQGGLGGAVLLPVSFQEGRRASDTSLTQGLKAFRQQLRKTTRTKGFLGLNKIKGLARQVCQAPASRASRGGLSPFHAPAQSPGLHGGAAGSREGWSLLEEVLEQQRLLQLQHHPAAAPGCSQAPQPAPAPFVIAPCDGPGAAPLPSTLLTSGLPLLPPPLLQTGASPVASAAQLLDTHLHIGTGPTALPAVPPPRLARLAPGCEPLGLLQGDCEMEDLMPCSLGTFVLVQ

Turning to `COc1cc(-c2cnc3cc(OC[C@@H]4CCN(C5COC5)C4)ccn23)cc(OC(F)F)c1C(=O)NC1CC1` [compound 336, N-cyclopropyl-2-(difluoromethoxy)-6-methoxy-4-[7-[[(3R)-1-(oxetan-3-yl)pyrrolidin-3-yl]methoxy]imidazo[1,2-a]pyridin-3-yl]benzamide], the IC50 against SIK1 was in the range of 10 to 100 nM; against SIK2, 0.01 to 10 nM; at SIK3 it was 0.01 to 10 nM.
`COc1cc(-c2cnc3cc(OC[C@@H]4CCCN(C5COC5)C4)ccn23)cc(OC(F)F)c1C(=O)NC1CC1` [compound 339, N-cyclopropyl-2-(difluoromethoxy)-6-methoxy-4-[7-[[(3R)-1-(oxetan-3-yl)-3-piperidyl]methoxy]imidazo[1,2-a]pyridin-3-yl]benzamide]: the IC50 on SIK1 lay in the range of 10 to 100 nM; against SIK2 it was 0.01 to 10 nM; against SIK3, 0.01 to 10 nM.
As for `COc1cc(-c2cnc3cc(OCCCN4CCCC(C#N)C4)ccn23)cc(OC(F)F)c1C(=O)NC1CC1` (stereo not drawn) [compound 346, 4-[7-[3-(3-cyano-1-piperidyl)propoxy]imidazo [1,2-a]pyridin-3-yl]-N-cyclopropyl-2-(difluoromethoxy)-6-methoxy-benzamide], the results for the IC50 on SIK1, on SIK2 and against SIK3 were 10 to 100 nM, 0.01 to 10 nM and 0.01 to 10 nM, respectively.
For the compound `COc1cc(-c2cnc3cc(OCCCN4CCC(S(C)(=O)=O)CC4)ccn23)cc(OC(F)F)c1C(=O)NC1CC1` [compound 347, N-cyclopropyl-2-(difluoromethoxy)-6-methoxy-4-[7-[3-(4-methylsulfonyl-1-piperidyl)propoxy]imidazo[1,2-a]pyridin-3-yl]benzamide], the IC50 against SIK1 fell in the range of 10 to 100 nM; against SIK2 it was 0.01 to 10 nM; against SIK3, 0.01 to 10 nM.
Take `COc1cc(-c2cnc3cc(OC[C@H]4CCN(CCC#N)C4)ccn23)cc(OC(F)F)c1C(=O)NC1CC1` [compound 350, 4-[7-[[(3S)-1-(2-cyanoethyl)pyrrolidin-3-yl]methoxy]imidazo[1,2-a]pyridin-3-yl]-N-cyclopropyl-2-(difluoromethoxy)-6-methoxy-benzamide]: the IC50 at SIK1 lay in the range of 10 to 100 nM; against SIK2 it was 0.01 to 10 nM; on SIK3 it was 0.01 to 10 nM.
With `COc1cc(-c2cnc3cc(OC[C@H]4CCCN(CCC#N)C4)ccn23)cc(OC(F)F)c1C(=O)NC1CC1` [compound 351, 4-[7-[[(3S)-1-(2-cyanoethyl)-3-piperidyl]methoxy]imidazo [1,2-a]pyridin-3-yl]-N-cyclopropyl-2-(difluoromethoxy)-6-methoxy-benzamide], the IC50 against SIK1, against SIK2 and against SIK3 was 0.01 to 10 nM throughout.
Consider `COc1cc(-c2cnc3cc(OCCCN4[C@H](C)CCC[C@@H]4C)ccn23)cc(OC(F)F)c1C(=O)NC1CC1` [compound 352, N-cyclopropyl-2-(difluoromethoxy)-4-[7-[3-[(2R,6S)-2,6-dimethyl-1-piperidyl]propoxy]imidazo [1,2-a]pyridin-3-yl]-6-methoxy-benzamide], for which the IC50 against SIK1, at SIK2 and on SIK3 was 0.01 to 10 nM throughout.
For the compound `COc1cc(-c2cnc3cc(OCCCN4CCCCC4)ccn23)cc(OC(F)F)c1C(=O)N1CC(O)(CC#N)C1` [compound 355, 2-[1-[2-(difluoromethoxy)-6-methoxy-4-[7-[3-(1-piperidyl)propoxy]imidazo[1,2-a]pyridin-3-yl]benzoyl]-3-hydroxy-azetidin-3-yl]acetonitrile], the IC50 was 100 to 500 nM on SIK1, 10 to 100 nM at SIK2 and 100 to 500 nM against SIK3.
Consider `COc1cc(-c2cnc3cc(OCC(F)(F)CN)ccn23)cc(OC(F)F)c1C(=O)NC1CC1` [compound 364, 4-[7-(3-amino-2,2-difluoro-propoxy)imidazo[1,2-a]pyridin-3-yl]-N-cyclopropyl-2-(difluoromethoxy)-6-methoxy-benzamide], for which the figures for the IC50 against SIK1, against SIK2 and on SIK3 were 10 to 100 nM, 0.01 to 10 nM and 0.01 to 10 nM, respectively.
Consider `COc1cc(-c2cnc3cc(OCCNc4ccccn4)ccn23)cc(OC(F)F)c1C(=O)NC1CC1` [compound 367, N-cyclopropyl-2-(difluoromethoxy)-6-methoxy-4-[7-[2-(2-pyridylamino)ethoxy]imidazo[1,2-a]pyridin-3-yl]benzamide], for which the IC50 against SIK1, on SIK2 and at SIK3 was 0.01 to 10 nM throughout.
As for `COc1cc(-c2cnc3cc(OCCNc4ncccn4)ccn23)cc(OC(F)F)c1C(=O)NC1CC1` [compound 368, N-cyclopropyl-2-(difluoromethoxy)-6-methoxy-4-[7-[2-(pyrimidin-2-ylamino)ethoxy]imidazo [1,2-a]pyridin-3-yl]benzamide], the IC50 against SIK1, at SIK2 and at SIK3 was 0.01 to 10 nM each time.
Regarding `COc1cc(-c2cnc3cc(OCCNc4ccncn4)ccn23)cc(OC(F)F)c1C(=O)NC1CC1` [compound 369, N-cyclopropyl-2-(difluoromethoxy)-6-methoxy-4-[7-[2-(pyrimidin-4-ylamino)ethoxy]imidazo [1,2-a]pyridin-3-yl]benzamide], the IC50 against SIK1, against SIK2 and against SIK3 was 0.01 to 10 nM each time.
As for `COc1cc(-c2cnc3cc(OCC(O)CN4CC[C@@H](O)C4)ccn23)cc(OC(F)F)c1C(=O)NC1CC1` (stereo partly drawn) [compound 376, N-cyclopropyl-2-(difluoromethoxy)-4-[7-[2-hydroxy-3-[(3R)-3-hydroxypyrrolidin-1-yl]propoxy]imidazo[1,2-a]pyridin-3-yl]-6-methoxy-benzamide], the IC50 on SIK1 fell in the range of 10 to 100 nM; on SIK2, 0.01 to 10 nM; against SIK3 it was 0.01 to 10 nM.
As for `COC(=O)[C@@H]1CN(CCOc2ccn3c(-c4cc(OC)c(C(=O)NC5CC5)c(OC(F)F)c4)cnc3c2)CCO1` [compound 389, methyl (2S)-4-[2-[3-[4-(cyclopropylcarbamoyl)-3-(difluoromethoxy)-5-methoxy-phenyl]imidazo[1,2-a]pyridin-7-yl]oxyethyl]morpholine-2-carboxylate], the IC50 fell in the range of 10 to 100 nM against SIK1, 0.01 to 10 nM on SIK2 and 0.01 to 10 nM at SIK3.
With `COc1cc(-c2cnc3cc(OCCCN4CC(C(=O)OC(C)(C)C)C4)ccn23)cc(OC(F)F)c1C(=O)NC1CC1` [compound 391, tert-butyl 1-[3-[3-[4-(cyclopropylcarbamoyl)-3-(difluoromethoxy)-5-methoxy-phenyl]imidazo[1,2-a]pyridin-7-yl]oxypropyl]azetidine-3-carboxylate], the results for the IC50 against SIK1, at SIK2 and at SIK3 were 10 to 100 nM, 0.01 to 10 nM and 0.01 to 10 nM, respectively.
Take `CCOC(=O)C1CCCN(CCOc2ccn3c(-c4cc(OC)c(C(=O)NC5CC5)c(OC(F)F)c4)cnc3c2)C1` (stereo not drawn) [compound 392, ethyl 1-[2-[3-[4-(cyclopropylcarbamoyl)-3-(difluoromethoxy)-5-methoxy-phenyl]imidazo[1,2-a]pyridin-7-yl]oxyethyl]piperidine-3-carboxylate]: the figures for the IC50 against SIK1, against SIK2 and at SIK3 were 10 to 100 nM, 0.01 to 10 nM and 0.01 to 10 nM, respectively.
On to `COC(=O)C1CN(CCOc2ccn3c(-c4cc(OC)c(C(=O)NC5CC5)c(OC(F)F)c4)cnc3c2)C1` [compound 393, methyl 1-[2-[3-[4-(cyclopropylcarbamoyl)-3-(difluoromethoxy)-5-methoxy-phenyl]imidazo[1,2-a]pyridin-7-yl]oxyethyl]azetidine-3-carboxylate], for which the IC50 against SIK1 was in the range of 10 to 100 nM; at SIK2, 0.01 to 10 nM; on SIK3 it was 0.01 to 10 nM.
Turning to `CCOC(=O)C1CCCN(CCCOc2ccn3c(-c4cc(OC)c(C(=O)NC5CC5)c(OC(F)F)c4)cnc3c2)C1` (stereo not drawn) [compound 395, ethyl 1-[3-[3-[4-(cyclopropylcarbamoyl)-3-(difluoromethoxy)-5-methoxy-phenyl]imidazo[1,2-a]pyridin-7-yl]oxypropyl]piperidine-3-carboxylate], the IC50 against SIK1 was 10 to 100 nM; on SIK2 it was 0.01 to 10 nM; at SIK3, 0.01 to 10 nM.

Source of the values: patent US12264156B2, “Compounds and pharmaceutical compositions thereof for the treatment of diseases” (GALAPAGOS NV, priority 2018, dated 2025).
